Data published in publication PMC5218480 (PLoS ONE, 2017).

Test system: MV-4-11 cells
Assay: Gene expression microarray analysis (Affymetrix PrimeView) and GSEA
Type: cell-based, human
Design: RFU PODN (11730768_x_at) / Fold change /veh PODN (11730768_x_at) / RFU LINC00158 (11744669_a_at) / Fold change /veh LINC00158 (11744669_a_at) / RFU DUSP10 (11751237_a_at) / Fold change /veh DUSP10 (11751237_a_at) / RFU ID3 (11757404_x_at) / Fold change /veh ID3 (11757404_x_at) / RFU PLEKHG5 (11737974_s_at) / Fold change /veh PLEKHG5 (11737974_s_at) / RFU LRRC4B (11730491_at) / Fold change /veh LRRC4B (11730491_at) / RFU GIMAP4 (11747438_a_at) / Fold change /veh GIMAP4 (11747438_a_at) / RFU KRT8 (11758183_x_at) / Fold change /veh KRT8 (11758183_x_at) / RFU CNN1 (11734310_a_at) / Fold change /veh CNN1 (11734310_a_at) / RFU VPS37D (11726825_at) / Fold change /veh VPS37D (11726825_at) / RFU C10orf10 (11716522_x_at) / Fold change /veh C10orf10 (11716522_x_at) / RFU KIR2DL2 /// KIR2DL4 /// KIR2DL5A /// KIR2DL5B /// KIR2DS1 /// KIR2DS2 /// KIR2DS3 /// KIR2DS4 /// KIR3DL3 /// KIR3DL3 /// KIR3DS1 (11738374_at) / Fold change /veh KIR2DL2 /// KIR2DL4 /// KIR2DL5A /// KIR2DL5B /// KIR2DS1 /// KIR2DS2 /// KIR2DS3 /// KIR2DS4 /// KIR3DL3 /// KIR3DL3 /// KIR3DS1 (11738374_at) / RFU C1QL1 (11718748_at) / Fold change /veh C1QL1 (11718748_at) / RFU TMPRSS4 (11747572_a_at) / Fold change /veh TMPRSS4 (11747572_a_at) / RFU HAMP (11756126_x_at) / Fold change /veh HAMP (11756126_x_at) / RFU RNFT2 (11725882_a_at) / Fold change /veh RNFT2 (11725882_a_at) / RFU NR4A2 (11747474_a_at) / Fold change /veh NR4A2 (11747474_a_at) / RFU ABCC12 (11746883_a_at) / Fold change /veh ABCC12 (11746883_a_at) / RFU TMEM136 (11760407_x_at) / Fold change /veh TMEM136 (11760407_x_at) / RFU CLDN22 /// WWC2 (11732394_at) / Fold change /veh CLDN22 /// WWC2 (11732394_at) / RFU HLA-DPB1 (11760878_x_at) / Fold change /veh HLA-DPB1 (11760878_x_at) / RFU SPINT1 (11716480_a_at) / Fold change /veh SPINT1 (11716480_a_at) / RFU GAP43 (11754022_s_at) / Fold change /veh GAP43 (11754022_s_at) / RFU A4GNT (11735810_at) / Fold change /veh A4GNT (11735810_at) / RFU PRB3 (11715151_x_at) / Fold change /veh PRB3 (11715151_x_at) / RFU TUBB4B (11761932_at) / Fold change /veh TUBB4B (11761932_at) / RFU CAPN14 (11732068_a_at) / Fold change /veh CAPN14 (11732068_a_at) / RFU TMCC2 (11721928_a_at) / Fold change /veh TMCC2 (11721928_a_at) / RFU IRGQ (11745062_a_at) / Fold change /veh IRGQ (11745062_a_at) / RFU FAM174B (11720279_a_at) / Fold change /veh FAM174B (11720279_a_at) / RFU TMPRSS4 (11748680_a_at) / Fold change /veh TMPRSS4 (11748680_a_at) / RFU FAM212B (11763350_a_at) / Fold change /veh FAM212B (11763350_a_at) / RFU PLEKHG5 (11743358_a_at) / Fold change /veh PLEKHG5 (11743358_a_at) / RFU ZSCAN30 (11745921_a_at) / Fold change /veh ZSCAN30 (11745921_a_at) / RFU CMKLR1 (11741424_a_at) / Fold change /veh CMKLR1 (11741424_a_at) / RFU LOC101060620 /// MAPK8IP1 (11723275_at) / Fold change /veh LOC101060620 /// MAPK8IP1 (11723275_at) / RFU SPTSSB (11747773_x_at) / Fold change /veh SPTSSB (11747773_x_at) / RFU PRSS12 (11739890_at) / Fold change /veh PRSS12 (11739890_at) / RFU BIN1 (11741810_x_at) / Fold change /veh BIN1 (11741810_x_at) / RFU WNT11 (11732464_a_at) / Fold change /veh WNT11 (11732464_a_at) / RFU C10orf10 (11716521_a_at) / Fold change /veh C10orf10 (11716521_a_at) / RFU C5orf56 (11738089_at) / Fold change /veh C5orf56 (11738089_at) / RFU CYB561 (11721691_x_at) / Fold change /veh CYB561 (11721691_x_at) / RFU ANKRD19P (11752326_a_at) / Fold change /veh ANKRD19P (11752326_a_at) / RFU OR2T12 /// OR2T33 /// OR2T8 (11738714_s_at) / Fold change /veh OR2T12 /// OR2T33 /// OR2T8 (11738714_s_at) / RFU VCAN (11748164_a_at) / Fold change /veh VCAN (11748164_a_at) / RFU JSRP1 (11732532_at) / Fold change /veh JSRP1 (11732532_at) / RFU KRTAP10-11 (11738290_x_at) / Fold change /veh KRTAP10-11 (11738290_x_at) / RFU MYO3A (11730013_a_at) / Fold change /veh MYO3A (11730013_a_at) / RFU EBF3 (11725865_a_at) / Fold change /veh EBF3 (11725865_a_at) / RFU CAMK2N1 (11719241_x_at) / Fold change /veh CAMK2N1 (11719241_x_at) / RFU C5orf56 (11738088_a_at) / Fold change /veh C5orf56 (11738088_a_at) / RFU OLFML3 (11715873_a_at) / Fold change /veh OLFML3 (11715873_a_at) / RFU LOC100653217 /// NTM (11731650_a_at) / Fold change /veh LOC100653217 /// NTM (11731650_a_at) / RFU MAPK11 (11762145_a_at) / Fold change /veh MAPK11 (11762145_a_at) / RFU FIZ1 (11724087_x_at) / Fold change /veh FIZ1 (11724087_x_at) / RFU OASL (11726364_x_at) / Fold change /veh OASL (11726364_x_at) / RFU SOX15 (11748057_x_at) / Fold change /veh SOX15 (11748057_x_at) / RFU CD79A (11719716_a_at) / Fold change /veh CD79A (11719716_a_at) / RFU HIST1H1D (11736915_at) / Fold change /veh HIST1H1D (11736915_at) / RFU CASKIN2 (11723855_a_at) / Fold change /veh CASKIN2 (11723855_a_at) / RFU LOC730098 (11760151_x_at) / Fold change /veh LOC730098 (11760151_x_at) / RFU OR4N2 (11742367_at) / Fold change /veh OR4N2 (11742367_at) / RFU PRRT2 (11749266_a_at) / Fold change /veh PRRT2 (11749266_a_at) / RFU SNX32 (11753110_a_at) / Fold change /veh SNX32 (11753110_a_at) / RFU CDHR5 (11726645_a_at) / Fold change /veh CDHR5 (11726645_a_at) / RFU RCAN1 (11760418_a_at) / Fold change /veh RCAN1 (11760418_a_at) / RFU FAM167A (11723789_a_at) / Fold change /veh FAM167A (11723789_a_at) / RFU FAM26E (11764081_at) / Fold change /veh FAM26E (11764081_at) / RFU ISYNA1 (11749810_s_at) / Fold change /veh ISYNA1 (11749810_s_at) / RFU ACY1 (11761880_at) / Fold change /veh ACY1 (11761880_at) / RFU 11764098_at / Fold change /veh 11764098_at / RFU SAMD14 (11745864_x_at) / Fold change /veh SAMD14 (11745864_x_at) / RFU NPB (11741838_a_at) / Fold change /veh NPB (11741838_a_at) / RFU TMPRSS6 (11731388_a_at) / Fold change /veh TMPRSS6 (11731388_a_at) / RFU KRTAP10-2 (11738614_at) / Fold change /veh KRTAP10-2 (11738614_at) / RFU ARHGAP8 /// PRR5-ARHGAP8 (11727945_x_at) / Fold change /veh ARHGAP8 /// PRR5-ARHGAP8 (11727945_x_at) / RFU KRTAP5-7 /// NADSYN1 (11734609_at) / Fold change /veh KRTAP5-7 /// NADSYN1 (11734609_at) / RFU RASL12 (11751679_a_at) / Fold change /veh RASL12 (11751679_a_at) / RFU CDKN2B (11736163_a_at) / Fold change /veh CDKN2B (11736163_a_at) / RFU PRF1 (11729649_at) / Fold change /veh PRF1 (11729649_at) / RFU, ZNF638 /// ZNF638-IT1 / Fold change vs veh, ZNF638 /// ZNF638-IT1 / RFU, PANK3 / Fold change vs veh, PANK3 / RFU, SH3YL1 / Fold change vs veh, SH3YL1 / RFU, ZEB2 / Fold change vs veh, ZEB2 / RFU, NRIP1 / Fold change vs veh, NRIP1 / RFU, PTTG1IP / Fold change vs veh, PTTG1IP / RFU, CAPN2 / Fold change vs veh, CAPN2 / RFU, MED14 / Fold change vs veh, MED14 / RFU, SNORA58 / Fold change vs veh, SNORA58 / RFU, C1orf63 / Fold change vs veh, C1orf63 / RFU, LRRFIP1 / Fold change vs veh, LRRFIP1 / RFU, NDUFAF7 / Fold change vs veh, NDUFAF7 / RFU, SLC12A2 / Fold change vs veh, SLC12A2 / RFU, IBTK / Fold change vs veh, IBTK / RFU, ESF1 / Fold change vs veh, ESF1 / Fold change vs veh, TMEM50B / RFU, TAOK1 / Fold change vs veh, TAOK1 / RFU, ACBD3 / Fold change vs veh, ACBD3 / RFU, TMA16 / Fold change vs veh, TMA16 / RFU, RWDD3 / Fold change vs veh, RWDD3 / RFU, BCAT1 / Fold change vs veh, BCAT1 / RFU, EDEM3 / Fold change vs veh, EDEM3 / RFU, TMEM33 / Fold change vs veh, TMEM33 / RFU, WDR75 / Fold change vs veh, WDR75 / RFU, AHCTF1 / Fold change vs veh, AHCTF1 / RFU, TFRC / Fold change vs veh, TFRC / RFU, ZDHHC17 / Fold change vs veh, ZDHHC17 / RFU, NOM1 / Fold change vs veh, NOM1 / RFU, ARL8B / Fold change vs veh, ARL8B / RFU, ZBTB11 / Fold change vs veh, ZBTB11 / RFU, TAMM41 / Fold change vs veh, TAMM41 / RFU, KIAA1704 /// LOC100996395 / Fold change vs veh, KIAA1704 /// LOC100996395 / RFU, ING1 / Fold change vs veh, ING1 / RFU, TRMT61B / Fold change vs veh, TRMT61B / RFU, FUBP3 / Fold change vs veh, FUBP3 / RFU, TP53 / Fold change vs veh, TP53 / RFU, TNKS2 / Fold change vs veh, TNKS2 / RFU, ZFP14 / Fold change vs veh, ZFP14 / RFU, ACTR2 / Fold change vs veh, ACTR2 / RFU, PPP3R1 / Fold change vs veh, PPP3R1 / RFU, PIK3R1 / Fold change vs veh, PIK3R1 / RFU, HNRNPA1 / Fold change vs veh, HNRNPA1 / RFU, RNF170 / Fold change vs veh, RNF170 / RFU, ZNF28 / Fold change vs veh, ZNF28 / RFU, RNGTT / Fold change vs veh, RNGTT / RFU, OGT / Fold change vs veh, OGT / RFU, BRD1 / Fold change vs veh, BRD1 / RFU, MARS / Fold change vs veh, MARS / RFU, ZNF655 / Fold change vs veh, ZNF655 / RFU, FAHD1 / Fold change vs veh, FAHD1 / RFU, BDP1 / Fold change vs veh, BDP1 / RFU, LRRCC1 / Fold change vs veh, LRRCC1 / RFU, ARID1A / Fold change vs veh, ARID1A / RFU, ZNF146 / Fold change vs veh, ZNF146 / RFU, ZNF330 / Fold change vs veh, ZNF330 / RFU, GPN3 / Fold change vs veh, GPN3 / RFU, C9orf123 / Fold change vs veh, C9orf123 / RFU, N4BP2L2 / Fold change vs veh, N4BP2L2 / RFU, ARFIP1 / Fold change vs veh, ARFIP1 / RFU, FAM179B / Fold change vs veh, FAM179B / RFU, BCL10 / Fold change vs veh, BCL10 / RFU, UHRF1BP1L / Fold change vs veh, UHRF1BP1L / RFU, BET1 / Fold change vs veh, BET1 / RFU, CNOT2 / Fold change vs veh, CNOT2 / RFU, ZNF268 / Fold change vs veh, ZNF268 / Fold change vs veh, ZNF507 / RFU, DGCR2 / Fold change vs veh, DGCR2 / RFU, WDSUB1 / Fold change vs veh, WDSUB1 / Fold change vs veh, HSP90B1 /// MIR3652 / RFU, ADSS / Fold change vs veh, ADSS / RFU, GK / Fold change vs veh, GK / RFU, ZNF148 / Fold change vs veh, ZNF148 / RFU, TAF9 / Fold change vs veh, TAF9 / RFU, SLC1A5 / Fold change vs veh, SLC1A5 / RFU, SLMO2 / Fold change vs veh, SLMO2 / RFU, ABCC4 / Fold change vs veh, ABCC4 / RFU, LOC101060439 /// RAP1B / Fold change vs veh, LOC101060439 /// RAP1B / RFU, RFX7 / Fold change vs veh, RFX7 / RFU, GTPBP10 / Fold change vs veh, GTPBP10 / RFU, CNEP1R1 / Fold change vs veh, CNEP1R1 / RFU, BIVM-ERCC5 /// ERCC5 / Fold change vs veh, BIVM-ERCC5 /// ERCC5 / RFU, ILF3 / Fold change vs veh, ILF3 / RFU 11762660_at / Fold change /veh 11762660_at / RFU VCAN (11757783_s_at) / Fold change /veh VCAN (11757783_s_at) / RFU DDX43 (11728927_at) / Fold change /veh DDX43 (11728927_at) / RFU KRT8 (11758188_x_at) / Fold change /veh KRT8 (11758188_x_at) / RFU NKD1 (11759106_at) / Fold change /veh NKD1 (11759106_at) / RFU SRD5A1 (11742802_a_at) / Fold change /veh SRD5A1 (11742802_a_at) / RFU TPSAB1 /// TPSB2 (11721975_s_at) / Fold change /veh TPSAB1 /// TPSB2 (11721975_s_at) / RFU GSTM3 (11746129_a_at) / Fold change /veh GSTM3 (11746129_a_at) / RFU IL23R (11737362_x_at) / Fold change /veh IL23R (11737362_x_at) / RFU TMEM51 (11727254_a_at) / Fold change /veh TMEM51 (11727254_a_at) / RFU PIWIL2 (11732686_x_at) / Fold change /veh PIWIL2 (11732686_x_at) / RFU ORM1 (11744905_x_at) / Fold change /veh ORM1 (11744905_x_at) / RFU CCDC152 (11743942_at) / Fold change /veh CCDC152 (11743942_at) / RFU ECM1 (11717891_a_at) / Fold change /veh ECM1 (11717891_a_at) / RFU IL23R (11748794_a_at) / Fold change /veh IL23R (11748794_a_at) / RFU TNFAIP8L3 (11732012_x_at) / Fold change /veh TNFAIP8L3 (11732012_x_at) / RFU MBOAT4 (11741988_at) / Fold change /veh MBOAT4 (11741988_at) / RFU 11764193_at / Fold change /veh 11764193_at / RFU TMEM53 (11763286_at) / Fold change /veh TMEM53 (11763286_at) / RFU MAGEB2 (11727129_at) / Fold change /veh MAGEB2 (11727129_at) / RFU TMEM200A (11744735_a_at) / Fold change /veh TMEM200A (11744735_a_at) / RFU CCDC152 (11751479_a_at) / Fold change /veh CCDC152 (11751479_a_at) / RFU FAM211A (11726209_a_at) / Fold change /veh FAM211A (11726209_a_at) / RFU RGS16 (11746705_a_at) / Fold change /veh RGS16 (11746705_a_at) / RFU VCAN (11755009_s_at) / Fold change /veh VCAN (11755009_s_at) / RFU RHOB (11743442_s_at) / Fold change /veh RHOB (11743442_s_at) / RFU RGS16 (11720943_a_at) / Fold change /veh RGS16 (11720943_a_at) / RFU RGS16 (11720944_at) / Fold change /veh RGS16 (11720944_at) / RFU, VPS4B / Fold change vs veh, VPS4B / RFU, CREB1 / Fold change vs veh, CREB1 / RFU, DNAJC13 / Fold change vs veh, DNAJC13 / RFU, GNAQ / Fold change vs veh, GNAQ / RFU, CDK5R1 / Fold change vs veh, CDK5R1 / RFU, ZRANB3 / Fold change vs veh, ZRANB3 / RFU, CUL4A / Fold change vs veh, CUL4A / RFU, CCNY / Fold change vs veh, CCNY / RFU, UFL1 / Fold change vs veh, UFL1 / RFU, COG3 / Fold change vs veh, COG3 / RFU, DIAPH2 / Fold change vs veh, DIAPH2 / RFU, SKA2 / Fold change vs veh, SKA2 / RFU, AFF3 / Fold change vs veh, AFF3 / RFU, LMF1 / Fold change vs veh, LMF1 / RFU, IPO11 / Fold change vs veh, IPO11 / RFU, DFFB / Fold change vs veh, DFFB / RFU, FOXP1 / Fold change vs veh, FOXP1 / RFU, CARD8 / Fold change vs veh, CARD8 / RFU, STRN3 / Fold change vs veh, STRN3 / RFU, ADK / Fold change vs veh, ADK / RFU, RASSF2 / Fold change vs veh, RASSF2 / RFU, WIPF1 / Fold change vs veh, WIPF1 / RFU, LARP1B / Fold change vs veh, LARP1B / RFU, RASA1 / Fold change vs veh, RASA1 / RFU, RB1 / Fold change vs veh, RB1 / RFU, PPFIA1 / Fold change vs veh, PPFIA1 / RFU, MAT2A / Fold change vs veh, MAT2A / RFU, CCT5 / Fold change vs veh, CCT5 / RFU, WDR92 / Fold change vs veh, WDR92 / RFU, CUX1 / Fold change vs veh, CUX1 / RFU, TTC7A / Fold change vs veh, TTC7A / RFU, TMEM135 / Fold change vs veh, TMEM135 / RFU, DEPTOR / Fold change vs veh, DEPTOR / RFU, CPM / Fold change vs veh, CPM / RFU, DNAJB6 / Fold change vs veh, DNAJB6 / RFU, CACNA2D3 / Fold change vs veh, CACNA2D3 / RFU, DTX4 / Fold change vs veh, DTX4 / RFU, TFCP2 / Fold change vs veh, TFCP2 / RFU, GMCL1 /// GMCL1P1 / Fold change vs veh, GMCL1 /// GMCL1P1 / RFU, AEBP2 / Fold change vs veh, AEBP2 / RFU, SNHG1 /// SNORD22 /// SNORD25 /// SNORD26 /// SNORD27 /// SNORD28 /// SNORD29 /// SNORD31 / Fold change vs veh, SNHG1 /// SNORD22 /// SNORD25 /// SNORD26 /// SNORD27 /// SNORD28 /// SNORD29 /// SNORD31 / Fold change (Aza/veh), C12orf56 (ProbeSet 11735607_a_at) / Fold change (ACY-1035/veh), C12orf56 (ProbeSet 11735607_a_at) / Fold change (Aza/veh), FGFR1OP (ProbeSet 11751329_s_at) / Fold change (ACY-1035/veh), FGFR1OP (ProbeSet 11751329_s_at) / Fold change (Aza/veh), VPS36 (ProbeSet 11739960_a_at) / Fold change (ACY-1035/veh), VPS36 (ProbeSet 11739960_a_at) / RFU SYPL1 (11715823_x_at) / Fold change /veh SYPL1 (11715823_x_at) / RFU IGFBP7 (11715501_s_at) / Fold change /veh IGFBP7 (11715501_s_at) / RFU REEP3 (11722064_at) / Fold change /veh REEP3 (11722064_at) / RFU IGLL1 (11728026_x_at) / Fold change /veh IGLL1 (11728026_x_at): dose or concentration left out as unconfirmed
Settings: ProbeSet 11728676_at; LIST B

SMILES: Nc1ncn([C@@H]2O[C@H](CO)[C@@H](O)[C@H]2O)c(=O)n1 [azacitidine]
- Fold change vs veh, MED14: 0.97
